# Data taken from ChEMBL document CHEMBL3046208, “Natural and synthetic podolactones with potential use as natural herbicide models” (2000).
# The source made the active and inactive calls. The calls are words filed in the database; no cut-off is given here.
# Tests used:
# Type in all cases: functional
# Allium cepa [1] = assay: Inhibition of germination of Allium cepa (onion) at 0.1 mM after 5 days relative to untreated control; details: 120 h
# Lepidium sativum [2] = assay: Stimulation of germination of Lepidium sativum at 0.1 mM after 5 days relative to untreated control
# Allium cepa [3] = assay: Stimulation of germination of Allium cepa (onion) at 0.1 mM after 5 days relative to untreated control
# Lactuca sativa [4] = assay: Inhibition of shoot length of Lactuca sativa cv. Roman (lettuce) at 0.1 mM after 5 days relative to untreated control; details: 120 h
# Lepidium sativum [5] = assay: Stimulation of root length of Lepidium sativum at 0.1 mM after 5 days relative to untreated control
# Triticum aestivum [6] = assay: Inhibition of root length of Triticum aestivum (wheat) at 0.1 mM after 5 days relative to untreated control; details: for inhibition at 100 µM: 120 h
# Lactuca sativa [7] = assay: Stimulation of germination of Lactuca sativa cv. Nigra (lettuce) at 0.1 mM after 5 days relative to untreated control
# Lactuca sativa [8] = assay: Inhibition of root length of Lactuca sativa cv. Roman (lettuce) at 0.1 mM after 5 days relative to untreated control
# Lepidium sativum [9] = assay: Inhibition of germination of Lepidium sativum at 0.1 mM after 5 days relative to untreated control
# Triticum aestivum [10] = assay: Stimulation of shoot length of Triticum aestivum (wheat) at 0.1 mM after 5 days relative to untreated control
# Lactuca sativa [11] = assay: Inhibition of root length of Lactuca sativa cv. Nigra (lettuce) at 0.1 mM after 5 days relative to untreated control
# Lactuca sativa [12] = assay: Inhibition of shoot length of Lactuca sativa cv. Nigra (lettuce) at 0.1 mM after 5 days relative to untreated control; details: for inhibition at 100 µM: 120 h
# Solanum lycopersicum [13] = assay: Inhibition of germination of Solanum lycopersicum (tomato) at 0.1 mM after 5 days relative to untreated control; details: for inhibition at 100 µM: 120 h
# Hordeum vulgare [14] = assay: Stimulation of root length of Hordeum vulgare (barley) at 0.1 mM after 5 days relative to untreated control
# Solanum lycopersicum [15] = assay: Inhibition of root length of Solanum lycopersicum (tomato) at 0.1 mM after 5 days relative to untreated control; details: for inhibition at 100 µM: 120 h
# Hordeum vulgare [16] = assay: Stimulation of shoot length of Hordeum vulgare (barley) at 0.1 mM after 5 days relative to untreated control
# Allium cepa [17] = assay: Inhibition of root length of Allium cepa (onion) at 0.1 mM after 5 days relative to untreated control; details: 120 h
# Triticum aestivum [18] = assay: Stimulation of root length of Triticum aestivum (wheat) at 0.1 mM after 5 days relative to untreated control
# Solanum lycopersicum [19] = assay: Stimulation of shoot length of Solanum lycopersicum (tomato) at 0.1 mM after 5 days relative to untreated control
# Lactuca sativa [20] = assay: Inhibition of germination of Lactuca sativa cv. Roman (lettuce) at 0.1 mM after 5 days relative to untreated control; details: 120 h
# Lepidium sativum [21] = assay: Inhibition of root length of Lepidium sativum at 0.1 mM after 5 days relative to untreated control; details: for inhibition at 100 µM: 120 h
# Triticum aestivum [22] = assay: Inhibition of shoot length of Triticum aestivum (wheat) at 0.1 mM after 5 days relative to untreated control
# Triticum aestivum [23] = assay: Stimulation of germination of Triticum aestivum (wheat) at 0.1 mM after 5 days relative to untreated control
# Lactuca sativa [24] = assay: Stimulation of shoot length of Lactuca sativa cv. Roman (lettuce) at 0.1 mM after 5 days relative to untreated control
# Lepidium sativum [25] = assay: Stimulation of shoot length of Lepidium sativum at 0.1 mM after 5 days relative to untreated control
# Allium cepa [26] = assay: Stimulation of shoot length of Allium cepa (onion) at 0.1 mM after 5 days relative to untreated control
# Lepidium sativum [27] = assay: Inhibition of shoot length of Lepidium sativum at 0.1 mM after 5 days relative to untreated control; details: for inhibition at 100 µM: 120 h
# Hordeum vulgare [28] = assay: Inhibition of root length of Hordeum vulgare (barley) at 0.1 mM after 5 days relative to untreated control; details: 120 h
# Lactuca sativa [29] = assay: Stimulation of root length of Lactuca sativa cv. Roman (lettuce) at 0.1 mM after 5 days relative to untreated control
# Lactuca sativa [30] = assay: Stimulation of germination of Lactuca sativa cv. Roman (lettuce) at 0.1 mM after 5 days relative to untreated control
# Allium cepa [31] = assay: Inhibition of shoot length of Allium cepa (onion) at 0.1 mM after 5 days relative to untreated control; details: 120 h
# Lactuca sativa [32] = assay: Stimulation of root length of Lactuca sativa cv. Nigra (lettuce) at 0.1 mM after 5 days relative to untreated control
# Lactuca sativa [33] = assay: Inhibition of germination of Lactuca sativa cv. Nigra (lettuce) at 0.1 mM after 5 days relative to untreated control; details: for inhibition at 100 µM: 120 h
# Hordeum vulgare [34] = assay: Stimulation of germination of Hordeum vulgare (barley) at 0.1 mM after 5 days relative to untreated control
# Solanum lycopersicum [35] = assay: Stimulation of root length of Solanum lycopersicum (tomato) at 0.1 mM after 5 days relative to untreated control
# Hordeum vulgare [36] = assay: Inhibition of shoot length of Hordeum vulgare (barley) at 0.1 mM after 5 days relative to untreated control
# Solanum lycopersicum [37] = assay: Inhibition of shoot length of Solanum lycopersicum (tomato) at 0.1 mM after 5 days relative to untreated control; details: for inhibition at 100 µM: 120 h
# Solanum lycopersicum [38] = assay: Stimulation of germination of Solanum lycopersicum (tomato) at 0.1 mM after 5 days relative to untreated control
# Allium cepa [39] = assay: Stimulation of root length of Allium cepa (onion) at 0.1 mM after 5 days relative to untreated control
# Lactuca sativa [40] = assay: Stimulation of shoot length of Lactuca sativa cv. Nigra (lettuce) at 0.1 mM after 5 days relative to untreated control
# Triticum aestivum [41] = assay: Inhibition of germination of Triticum aestivum (wheat) at 0.1 mM after 5 days relative to untreated control
# Hordeum vulgare [42] = assay: Inhibition of germination of Hordeum vulgare (barley) at 0.1 mM after 5 days relative to untreated control; details: 120 h
structure (smiles),measurement,setting,value
COC(=O)[C@@]1(C)CCC[C@]2(C)C3=CC(=O)O[C@H](C(C)C)C3=CC[C@@H]12,inhibition at 100 µM,Allium cepa [1],20%
same,Activity,Lepidium sativum [2],inactive
same,Activity,Allium cepa [3],20%
same,inhibition at 100 µM,Lactuca sativa [4],< 20%
same,Activity,Lepidium sativum [5],20%
same,inhibition at 100 µM,Triticum aestivum [6],< 20%
same,Activity,Lactuca sativa [7],<20%
same,inhibition at 100 µM,Lactuca sativa [8]; 120 h,< 20%
same,inhibition,Lepidium sativum [9],inactive
same,Activity,Triticum aestivum [10],inactive
same,inhibition,Lactuca sativa [11],inactive
same,inhibition at 100 µM,Lactuca sativa [12],< 20%
same,inhibition at 100 µM,Solanum lycopersicum [13],< 20%
same,Activity,Hordeum vulgare [14],<20%
same,inhibition at 100 µM,Solanum lycopersicum [15],> 40%
same,Activity,Hordeum vulgare [16],inactive
same,inhibition at 100 µM,Allium cepa [17],20%
same,Activity,Triticum aestivum [18],<20%
same,Activity,Solanum lycopersicum [19],<20%
same,inhibition at 100 µM,Lactuca sativa [20],< 20%
same,inhibition at 100 µM,Lepidium sativum [21],20%
same,inhibition,Triticum aestivum [22],inactive
same,Activity,Triticum aestivum [23],inactive
same,Activity,Lactuca sativa [24],<20%
same,Activity,Lepidium sativum [25],<20%
same,Activity,Allium cepa [26],20%
same,inhibition at 100 µM,Lepidium sativum [27],< 20%
same,inhibition at 100 µM,Hordeum vulgare [28],< 20%
same,Activity,Lactuca sativa [29],<20%
same,Activity,Lactuca sativa [30],<20%
same,inhibition at 100 µM,Allium cepa [31],20%
same,Activity,Lactuca sativa [32],inactive
same,inhibition at 100 µM,Lactuca sativa [33],< 20%
same,Activity,Hordeum vulgare [34],20%
same,Activity,Solanum lycopersicum [35],>40%
same,inhibition,Hordeum vulgare [36],inactive
same,inhibition at 100 µM,Solanum lycopersicum [37],< 20%
same,Activity,Solanum lycopersicum [38],<20%
same,Activity,Allium cepa [39],20%
same,Activity,Lactuca sativa [40],<20%
same,inhibition,Triticum aestivum [41],inactive
same,inhibition at 100 µM,Hordeum vulgare [42],20%
COC(=O)[C@@]1(C)CCC[C@]2(C)C3=CC(=O)OC[C@]34O[C@@H]4C[C@@H]12,inhibition at 100 µM,Allium cepa [1],< 20%
same,Activity,Lepidium sativum [2],inactive
same,Activity,Allium cepa [3],<20%
same,inhibition at 100 µM,Lactuca sativa [4],< 20%
same,Activity,Lepidium sativum [5],inactive
same,inhibition at 100 µM,Triticum aestivum [6],20%
same,Activity,Lactuca sativa [7],inactive
same,inhibition,Lactuca sativa [8],inactive
same,inhibition,Lepidium sativum [9],inactive
same,Activity,Triticum aestivum [10],inactive
same,inhibition,Lactuca sativa [11],inactive
same,inhibition,Lactuca sativa [12],inactive
same,inhibition at 100 µM,Solanum lycopersicum [13],20%
same,Activity,Hordeum vulgare [14],20%
same,inhibition at 100 µM,Solanum lycopersicum [15],< 20%
same,Activity,Hordeum vulgare [16],<20%
same,inhibition at 100 µM,Allium cepa [17],< 20%
same,Activity,Triticum aestivum [18],20%
same,Activity,Solanum lycopersicum [19],20%
same,inhibition at 100 µM,Lactuca sativa [20],< 20%
same,inhibition,Lepidium sativum [21],inactive
same,inhibition,Triticum aestivum [22],inactive
same,Activity,Triticum aestivum [23],inactive
same,Activity,Lactuca sativa [24],<20%
same,Activity,Lepidium sativum [25],inactive
same,Activity,Allium cepa [26],<20%
same,inhibition,Lepidium sativum [27],inactive
same,inhibition at 100 µM,Hordeum vulgare [28],20%
same,Activity,Lactuca sativa [29],inactive
same,Activity,Lactuca sativa [30],<20%
same,inhibition at 100 µM,Allium cepa [31],< 20%
same,Activity,Lactuca sativa [32],inactive
same,inhibition,Lactuca sativa [33],inactive
same,Activity,Hordeum vulgare [34],20%
same,Activity,Solanum lycopersicum [35],<20%
same,inhibition at 100 µM,Hordeum vulgare [36]; 120 h,< 20%
same,inhibition at 100 µM,Solanum lycopersicum [37],20%
same,Activity,Solanum lycopersicum [38],20%
same,Activity,Allium cepa [39],<20%
same,Activity,Lactuca sativa [40],inactive
same,inhibition,Triticum aestivum [41],inactive
same,inhibition at 100 µM,Hordeum vulgare [42],20%
COC(=O)[C@@]1(C)CCC[C@]2(C)C3=CC(=O)OCC3=CC[C@@H]12,inhibition at 100 µM,Allium cepa [1],< 20%
same,Activity,Lepidium sativum [2],inactive
same,Activity,Allium cepa [3],<20%
same,inhibition at 100 µM,Lactuca sativa [4],< 20%
same,Activity,Lepidium sativum [5],20%
same,inhibition,Triticum aestivum [6],inactive
same,Activity,Lactuca sativa [7],20%
same,inhibition,Lactuca sativa [8],inactive
same,inhibition,Lepidium sativum [9],inactive
same,Activity,Triticum aestivum [10],inactive
same,inhibition at 100 µM,Lactuca sativa [11]; 120 h,< 20%
same,inhibition at 100 µM,Lactuca sativa [12],< 20%
same,inhibition,Solanum lycopersicum [13],inactive
same,Activity,Hordeum vulgare [14],>40%
same,inhibition,Solanum lycopersicum [15],inactive
same,Activity,Hordeum vulgare [16],inactive
same,inhibition at 100 µM,Allium cepa [17],20%
same,Activity,Triticum aestivum [18],inactive
same,Activity,Solanum lycopersicum [19],inactive
same,inhibition at 100 µM,Lactuca sativa [20],< 20%
same,inhibition at 100 µM,Lepidium sativum [21],20%
same,inhibition,Triticum aestivum [22],inactive
same,Activity,Triticum aestivum [23],inactive
same,Activity,Lactuca sativa [24],<20%
same,Activity,Lepidium sativum [25],20%
same,Activity,Allium cepa [26],20%
same,inhibition at 100 µM,Lepidium sativum [27],20%
same,inhibition at 100 µM,Hordeum vulgare [28],> 40%
same,Activity,Lactuca sativa [29],inactive
same,Activity,Lactuca sativa [30],<20%
same,inhibition at 100 µM,Allium cepa [31],20%
same,Activity,Lactuca sativa [32],<20%
same,inhibition at 100 µM,Lactuca sativa [33],20%
same,Activity,Hordeum vulgare [34],20%
same,Activity,Solanum lycopersicum [35],inactive
same,inhibition,Hordeum vulgare [36],inactive
same,inhibition,Solanum lycopersicum [37],inactive
same,Activity,Solanum lycopersicum [38],inactive
same,Activity,Allium cepa [39],20%
same,Activity,Lactuca sativa [40],<20%
same,inhibition,Triticum aestivum [41],inactive
same,inhibition at 100 µM,Hordeum vulgare [42],20%
